Measured values: patent US10280166B2, “2-(1H-indazol-3-yl)-3H-imidazo[4,5-B]pyridine and therapeutic uses thereof” (Samumed, LLC, priority 2014, dated 2019)

Tested on: Wnt activity (SW480 colon carcinoma cells stably expressing the Sp5-Luc reporter gene)
Assay: Sp5-Luc reporter gene screening assay for Wnt activity in SW480 cells
Assay type: cell-based
Conditions: Homo sapiens, 42 h incubation, luminescence
From the text: The screening assay for Wnt activity is described as follows. Reporter cell lines can be generated by stably transducing cancer cell lines (e.g., colon cancer) or primary cells (e.g., IEC-6 intestinal cells) with a lentiviral construct that includes a Wnt-responsive promoter driving expression of the firefly luciferase gene.
SW480 colon carcinoma cells were transduced with a lentiviral vector expressing luciferase with a human Sp5 promoter consisting of a sequence of eight TCF/LEF binding sites. SW480 cells stably expressing the Sp5-Luc reporter gene and a hygromycin resistance gene were selected by treatment with 150 μg/ml of hygromycin for 7 days. These stably transduced SW480 cells were expanded in cell culture and used for all further screening activities. For Sp5-Luc reporter gene assays, the cells were plated at 10,000 cells/well in 96-well plates with growth medium containing 10% fetal calf serum and incubated overnight at 37° C. and 5% CO2. Each compound was dissolved in DMSO as a 10 mM stock in standard j-vials and used to prepare compound source plates in dose-response format with 3-fold serial dilutions and a 10 mM top concentration. Compound transfer from serially diluted source plates to assay plates containing the cells was accomplished using a pintool (Multimek 96, Beckman equipped with V&P Scientific FP1S50H pins) based liquid handling protocol. This protocol used a slotted pin to transfer 50 nl of compound from a source plate well to an assay plate well containing 50 μl of cells in growth medium. […] Control wells received 50 nl of DMSO treatment for normalization and calculating IC50 values. The treated cells were incubated at 37° C. and 5% CO2 for an additional forty-two hours. Following incubation, the growth medium was removed and 50 μl of BrightGlo luminescence reagent (Promega) was added to each well of the 96-well assay plates. The plates were placed on an orbital shaker for 5 min and then luminescence was quantified on the Victor3 (Perkin Elmer) plate reader. Readings were normalized to DMSO only treated cells, and normalized activities were utilized for IC50 calculations using the dose-response log (inhibitor) vs. response—variable slope (four parameters) nonlinear regression feature available in GraphPad Prism 5.0 or 6.0.

Row | SMILES | IC50
1 | CC(C)CC(=O)Nc1cncc(-c2ccc3[nH]nc(-c4nc5c(-c6ccc(F)cc6)ccnc5[nH]4)c3c2)c1 [Compound 28, N-(5-(3-(7-(4-Fluorophenyl)-3H-imidazo[4,5-b]pyridin-2-yl)-1H-indazol-5-yl)pyridin-3-yl)-3-methylbutanamide] | 4 nM
2 | CC(C)(C)CC(=O)Nc1cncc(-c2ccc3[nH]nc(-c4nc5c(-c6ccccc6F)ccnc5[nH]4)c3c2)c1 [Compound 68, N-(5-(3-(7-(2-Fluorophenyl)-3H-imidazo[4,5-b]pyridin-2-yl)-1H-indazol-5-yl)pyridin-3-yl)-3,3-dimethylbutanamide] | 52 nM
3 | CC(C)C(=O)Nc1cncc(-c2ccc3[nH]nc(-c4nc5c(-c6cccnc6)ccnc5[nH]4)c3c2)c1 [Compound 87, N-(5-(3-(7-(Pyridin-3-yl)-3H-imidazo[4,5-b]pyridin-2-yl)-1H-indazol-5-yl)pyridin-3-yl)isobutyramide] | 6.8 nM
4 | O=C(Cc1ccccc1)Nc1cncc(-c2ccc3[nH]nc(-c4nc5c(-c6ccncc6)ccnc5[nH]4)c3c2)c1 [Compound 114, 2-Phenyl-N-(5-(3-(7-(pyridin-4-yl)-3H-imidazo[4,5-b]pyridin-2-yl)-1H-indazol-5-yl)pyridin-3-yl)acetamide] | 54 nM
5 | CCCC(=O)Nc1cncc(-c2ccc3[nH]nc(-c4nc5c(-c6ccncc6)ccnc5[nH]4)c3c2)c1 [Compound 121, N-(5-(3-(7-(Pyridin-4-yl)-3H-imidazo[4,5-b]pyridin-2-yl)-1H-indazol-5-yl)pyridin-3-yl)butyramide] | 35 nM
6 | O=C(Nc1cncc(-c2ccc3[nH]nc(-c4nc5c(-c6ccncc6)ccnc5[nH]4)c3c2)c1)C1CCCCC1 [Compound 126, N-(5-(3-(7-(Pyridin-4-yl)-3H-imidazo[4,5-b]pyridin-2-yl)-1H-indazol-5-yl)pyridin-3-yl)cyclohexanecarboxamide] | 30.7 nM
7 | CN1CCN(c2ccnc3[nH]c(-c4n[nH]c5ccc(-c6cncc(N)c6)cc45)nc23)CC1 [Compound 211, 5-(3-(7-(4-Methylpiperazin-1-yl)-3H-imidazo[4,5-b]pyridin-2-yl)-1H-indazol-5-yl)pyridin-3-amine] | 66.3 nM
8 | O=C(Cc1ccccc1)Nc1cncc(-c2ccc3[nH]nc(-c4nc5cccnc5[nH]4)c3c2)c1 [Compound 244, N-(5-(3-(3H-Imidazo[4,5-b]pyridin-2-yl)-1H-indazol-5-yl)pyridin-3-yl)-2-phenylacetamide] | 352 nM
9 | CC(C)(C)C(=O)Nc1cncc(-c2ccc3[nH]nc(-c4nc5c(-c6ccsc6)ccnc5[nH]4)c3c2)c1 [Compound 268, N-(5-(3-(7-(Thiophen-3-yl)-3H-imidazo[4,5-b]pyridin-2-yl)-1H-indazol-5-yl)pyridin-3-yl)pivalamide] | 6.5 nM
10 | CN(C)c1cncc(-c2ccc3[nH]nc(-c4nc5c(-c6cccs6)ccnc5[nH]4)c3c2)c1 [Compound 319, N,N-Dimethyl-5-(3-(7-(thiophen-2-yl)-3H-imidazo[4,5-b]pyridin-2-yl)-1H-indazol-5-yl)pyridin-3-amine] | 62.8 nM
11 | CC(C)C(=O)Nc1cncc(-c2ccc3[nH]nc(-c4nc5c(-c6cccs6)ccnc5[nH]4)c3c2)c1 [Compound 321, N-(5-(3-(7-(Thiophen-2-yl)-3H-imidazo[4,5-b]pyridin-2-yl)-1H-indazol-5-yl)pyridin-3-yl)isobutyramide] | 41.1 nM
12 | CC(C)CC(=O)Nc1cncc(-c2ccc3[nH]nc(-c4nc5c(-c6ccc(F)s6)ccnc5[nH]4)c3c2)c1 [Compound 340, N-(5-(3-(7-(5-Fluorothiophen-2-yl)-3H-imidazo[4,5-b]pyridin-2-yl)-1H-indazol-5-yl)pyridin-3-yl)-3-methylbutanamide] | 4.9 nM
13 | O=C(Nc1cncc(-c2ccc3[nH]nc(-c4nc5c(-c6ccc(F)s6)ccnc5[nH]4)c3c2)c1)C1CCC1 [Compound 358, N-(5-(3-(7-(5-Fluorothiophen-2-yl)-3H-imidazo[4,5-b]pyridin-2-yl)-1H-indazol-5-yl)pyridin-3-yl)cyclobutanecarboxamide] | 6.9 nM
14 | CS(=O)(=O)NCc1cc(F)cc(-c2ccnc3[nH]c(-c4n[nH]c5ccc(-c6cncc(NC(=O)c7ccccc7)c6)cc45)nc23)c1 [Compound 427, N-(5-(3-(7-(3-Fluoro-5-(methylsulfonamidomethyl)phenyl)-3H-imidazo[4,5-b]pyridin-2-yl)-1H-indazol-5-yl)pyridin-3-yl)benzamide] | 19.2 nM
15 | CS(=O)(=O)NCc1cc(F)cc(-c2ccnc3[nH]c(-c4n[nH]c5ccc(-c6cncnc6)cc45)nc23)c1 [Compound 442, N-(3-Fluoro-5-(2-(5-(pyrimidin-5-yl)-1H-indazol-3-yl)-3H-imidazo[4,5-b]pyridin-7-yl)benzyl)methanesulfonamide] | 5.8 nM
16 | CN(C)Cc1cncc(-c2cc(F)c3[nH]nc(-c4nc5c(-c6cccc(F)c6)ccnc5[nH]4)c3c2)c1 [Compound 481, 1-(5-(7-fluoro-3-(7-(3-fluorophenyl)-3H-imidazo[4,5-b]pyridin-2-yl)-1H-indazol-5-yl)pyridin-3-yl)-N,N-dimethylmethanamine] | 155 nM
17 | CN(C)Cc1cncc(-c2cc(F)c3[nH]nc(-c4nc5c(-c6ccsc6)ccnc5[nH]4)c3c2)c1 [Compound 741, 1-(5-(7-Fluoro-3-(7-(thiophen-3-yl)-3H-imidazo[4,5-b]pyridin-2-yl)-1H-indazol-5-yl)pyridin-3-yl)-N,N-dimethylmethanamine] | 936 nM
18 | CN(C)Cc1cncc(-c2cc(F)c3[nH]nc(-c4nc5c(-c6cc(F)cc(CNS(C)(=O)=O)c6)ccnc5[nH]4)c3c2)c1 [Compound 897, N-(3-(2-(5-(5-((Dimethylamino)methyl)pyridin-3-yl)-7-fluoro-1H-indazol-3-yl)-3H-imidazo[4,5-b]pyridin-7-yl)-5-fluorobenzyl)methanesulfonamide] | 74 nM
19 | CN(C)Cc1cncc(-c2cc3c(-c4nc5c(-c6cccc(F)c6)ccnc5[nH]4)n[nH]c3cc2F)c1 [Compound 949, 1-(5-(6-Fluoro-3-(7-(3-fluorophenyl)-3H-imidazo[4,5-b]pyridin-2-yl)-1H-indazol-5-yl)pyridin-3-yl)-N,N-dimethylmethanamine] | > 10000 nM
20 | CN(C)Cc1cncc(-c2cc3c(-c4nc5c(-c6ccsc6)ccnc5[nH]4)n[nH]c3cc2F)c1 [Compound 1209, 1-(5-(6-Fluoro-3-(7-(thiophen-3-yl)-3H-imidazo[4,5-b]pyridin-2-yl)-1H-indazol-5-yl)pyridin-3-yl)-N,N-dimethylmethanamine] | > 10000 nM
21 | CN(C)Cc1cncc(-c2cc3c(-c4nc5c(-c6cc(F)cc(CNS(C)(=O)=O)c6)ccnc5[nH]4)n[nH]c3cc2F)c1 [Compound 1365, N-(3-(2-(5-(5-((Dimethylamino)methyl)pyridin-3-yl)-6-fluoro-1H-indazol-3-yl)-3H-imidazo[4,5-b]pyridin-7-yl)-5-fluorobenzyl)methanesulfonamide] | 804 nM
22 | CN(C)Cc1cncc(-c2ccc3[nH]nc(-c4nc5c(-c6cccc(F)c6)ccnc5[nH]4)c3c2F)c1 [Compound 1417, 1-(5-(4-Fluoro-3-(7-(3-fluorophenyl)-3H-imidazo[4,5-b]pyridin-2-yl)-1H-indazol-5-yl)pyridin-3-yl)-N,N-dimethylmethanamine] | 923 nM
23 | CN(C)Cc1cncc(-c2ccc3[nH]nc(-c4nc5c(-c6ccsc6)ccnc5[nH]4)c3c2F)c1 [Compound 1677, 1-(5-(4-Fluoro-3-(7-(thiophen-3-yl)-3H-imidazo[4,5-b]pyridin-2-yl)-1H-indazol-5-yl)pyridin-3-yl)-N,N-dimethylmethanamine] | 673 nM
